In publication PMC9902381, “Binding and functional structure-activity similarities of 4-substituted 2,5-dimethoxyphenyl isopropylamine analogues at 5-HT2A and 5-HT2B serotonin receptors” (Frontiers in Pharmacology, 2023):
Like-named read-outs stand apart in the source and are kept apart here.

Columns and labels:
human 5-HT2B receptor [1] = target: T1, human 5-HT2B receptor (Homo sapiens, UniProt P41595); experiment: 5-HT2B receptor functional activity (agonist) using Ca2+ mobilization assay in Flp-In T-REx 293 cells; format: cell-based; conditions: for Maximal 5-HT effect: maximal effect relative to 5-HT = 100%; for Emax: Flp-In-T-REx-293, read-out: Maximal 5-HT effect; for agonist effect at 5-HT2B receptors: highest concentration examined (10,000 nM)
T1 construct: host or cells: Flp-In T-REx 293 cells (HEK 293)

human 5-HT2A = target: human 5-HT2A; set-up: method as in Nelson et al., 1999; conditions: cloned human 5-HT2A vs [125I]DOI; ref Nelson et al., 1999; cited from earlier work
rat 5-HT2 = target: rat 5-HT2; set-up: method as in Seggel et al., 1990; conditions: rat brain 5-HT2 vs [3H]ketanserin; ref Seggel et al., 1990; cited from earlier work
human 5-HT2B = target: human 5-HT2B; set-up: method as in Nelson et al., 1999; conditions: human 5-HT2B vs [3H]5-HT; ref Nelson et al., 1999; cited from earlier work
[2] = substituent constant; ref Hansch et al. 1973; cited from earlier work
human 5-HT2B receptors = test system: human 5-HT2B receptors; set-up: method as in Porter et al. (1999); conditions: CHO cells, intracellular calcium; ref Porter et al. (1999); cited from earlier work
5-HT2B receptor = test system: 5-HT2B receptor; set-up: method as in Huang et al. (2009); conditions: multiple functional assays; ref Huang et al. (2009); cited from earlier work
human 5-HT2B receptor [3] = target: T1, human 5-HT2B receptor; experiment: 5-HT2B receptor antagonism of 10 nM 5-HT Ca2+ signal in Flp-In T-REx 293 cells; format: cell-based
Method: A stable cell line was generated expressing the human 5-HT2B receptor using the Flp-In T-REx system (Thermo Fisher) ([Younkin et al., 2016]; [Steele et al., 2021]). Briefly, 5-HT2B receptor coding plasmid was obtained from cDNA Resource Center (cat # HTR02B0000). The 5-HT2B receptor cDNA was subcloned into the pcDNA/FRT/TO expression plasmid, and was co-transfected with pOG44 plasmid (coding the Flp recombinase) in Flp-In T-REx 293 cells. Cells were selected using 100 μg/mL of hygromycin and resistant cells were expanded and stored in liquid N2 for later use. For experimentation, stable cell lines were plated in Matrigel-coated 96-well imaging plates in Dulbecco’s Modified Eagle Medium (DMEM) containing 10% fetal bovine serum (FBS) and 5% penicillin/streptomycin, and the medium was supplemented with doxycycline (1 μg/mL) to upregulate the expression of the receptor 3 days before the experiment. Then, cells were loaded with Fura 2-AM for 30 min in Ca^2+ imaging solution (IS) consistent of 130 NaCl, 4 KCl, 2 CaCl2, 1 MgCl2, 10 HEPES, 10 glucose (in mM, pH adjusted to 7.4). […] Three wells containing cells were analyzed for each concentration per experiment day. […] All data were processed used Fiji software by ImageJ2 which allowed manual selection of cells and measurement of fluorescence. […]

rat 5-HT2A = test system: rat 5-HT2A; set-up: method as in Seggel et al., 1990; Glennon 2017; conditions: ref Seggel et al., 1990; Glennon 2017; cited from earlier work
[4] = agonist potency, Ca2+ mobilization, Hill slope 1.0
[5] = agonist potency, Ca2+ mobilization, Hill slope 1.0, read-out: h5-HT2B EC50

T1 sequence (P41595 whole entry): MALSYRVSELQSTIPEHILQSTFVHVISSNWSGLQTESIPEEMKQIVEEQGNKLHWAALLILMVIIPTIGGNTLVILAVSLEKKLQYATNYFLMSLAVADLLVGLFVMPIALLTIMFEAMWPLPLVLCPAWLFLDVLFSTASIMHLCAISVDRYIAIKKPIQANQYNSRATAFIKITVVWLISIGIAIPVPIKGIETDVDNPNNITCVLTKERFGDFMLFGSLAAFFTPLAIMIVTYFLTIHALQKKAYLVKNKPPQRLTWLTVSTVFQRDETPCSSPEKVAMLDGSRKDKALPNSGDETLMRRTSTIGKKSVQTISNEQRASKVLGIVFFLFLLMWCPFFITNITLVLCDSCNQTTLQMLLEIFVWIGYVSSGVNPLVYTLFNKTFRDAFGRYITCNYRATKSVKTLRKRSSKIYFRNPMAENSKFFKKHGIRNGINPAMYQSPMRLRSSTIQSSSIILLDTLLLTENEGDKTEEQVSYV

| SMILES | h5-HT2B pEC50 ± SEM (human 5-HT2B receptor [1]; [4]) | EC50 (human 5-HT2B receptor [1]; [5]) | Maximal 5-HT effect (human 5-HT2B receptor [1]) | EC50 (human 5-HT2B receptor [1]) | Emax (human 5-HT2B receptor [1]) | h5-HT2A pKi (human 5-HT2A) | r5-HT2 pKi (rat 5-HT2) | h5-HT2B pKi (human 5-HT2B) | σp (electronic character of 4-position substituent) [2] | π (lipophilic character of 4-position substituent) [2] | % of the effect of 5-HT at human 5-HT2B (human 5-HT2B receptors) | 5-HT2B receptor agonist action (5-HT2B receptor) | agonist effect at 5-HT2B receptors (human 5-HT2B receptor [1]) | action on the 5-HT-mediated response at 5-HT2B (human 5-HT2B receptor [3]) | rat 5-HT2A functional action (rat 5-HT2A) | potency relative to R (−) enantiomer at 5-HT2B (human 5-HT2B receptor [1]; optical isomers of 2,5-DMA) |
| --- | --- | --- | --- | --- | --- | --- | --- | --- | --- | --- | --- | --- | --- | --- | --- | --- |
| COc1ccc(OC)c(C[C@@H](C)N)c1 (single isomer, unassigned) [R (−) enantiomer] | 5.49 ± 0.16 | 3.24 µM | 87% |  |  |  |  |  |  |  |  |  |  |  |  |  |
| COc1ccc(OC)c(CC(C)N)c1 (stereo not shown) [1a, 1-(2,5-dimethoxyphenyl)isopropylamine] |  |  |  | 3.39 µM | 93% | 6.68 | 5.28 | 5.98 | 0 |  |  |  |  |  |  |  |
| COc1cc(CC(C)N)c(OC)cc1F (stereo not shown) [1b] |  |  |  | 0.439 µM | 82% | 7.38 | 5.96 | 6.64 | 0.06 | 0.14 |  |  |  |  |  |  |
| COc1cc(CC(C)N)c(OC)cc1Cl (stereo not shown) [1c] |  |  |  |  |  | 8.85 | 6.66 | 7.50 | 0.23 | 0.71 |  |  |  |  |  |  |
| COc1cc(CC(C)N)c(OC)cc1Br (stereo not shown) [1d] |  |  |  | 0.0087 µM | 70% | 9.22 |  | 7.53 | 0.23 | 0.86 | 69% |  |  |  |  |  |
| COc1cc(CC(C)N)c(OC)cc1I (stereo not shown) [1e] |  |  | 71% | 0.0372 µM |  |  | 7.72 | 7.70 | 0.18 | 1.12 | 65% | potent 5-HT2B receptor agonist |  |  |  |  |
| COc1cc(OC)c(OC)cc1CC(C)N (stereo not shown) [1f] |  |  |  |  |  | 7.24 | 5.90 | 6.51 | -0.27 | -0.02 |  |  |  |  |  |  |
| CCOc1cc(OC)c(CC(C)N)cc1OC (stereo not shown) [1g] |  |  |  | 0.557 µM | 70% | 7.14 | 5.66 | 6.12 | -0.24 | 0.38 |  |  |  |  |  |  |
| COc1cc([N+](=O)[O-])c(OC)cc1CC(C)N (stereo not shown) [1h] |  |  |  | 0.089 µM | 77% | 8.26 | 6.52 | 6.78 | 0.78 | -0.28 |  |  |  |  |  |  |
| COc1cc(CC(C)N)c(OC)cc1C#N (stereo not shown) [1i] |  |  |  |  |  | 7.34 | 5.62 | 6.11 | 0.66 | -0.57 |  |  |  |  |  |  |
| CCCc1cc(OC)c(CC(C)N)cc1OC (stereo not shown) [1j] |  |  | 75% | 0.055 µM |  | 9.05 | 7.16 |  | -0.13 | 1.55 |  |  |  |  |  |  |
| CCCCCCc1cc(OC)c(CC(C)N)cc1OC (stereo not shown) [1k] |  |  | 0% | > 10 µM |  | 10.00 | 8.60 | 7.52 | -0.13 | 3.05 |  |  | failed to produce an agonist effect | behaved as antagonists | lack rat 5-HT2A agonist action and behave as antagonists |  |
| COc1cc(C(C)(C)C)c(OC)cc1CC(C)N (stereo not shown) [1l] |  |  |  | 0.0372 µM | 69% | 8.43 | 7.72 | 7.61 | -0.20 | 1.98 |  |  |  |  |  |  |
| COc1cc(CC(C)N)c(OC)cc1Cc1ccccc1 (stereo not shown) [1m] |  |  |  | > 10 µM | 0% | 9.40 | 8.15 | 7.64 | -0.09 | 2.01 |  |  | failed to produce an agonist effect | behaved as antagonists | lack rat 5-HT2A agonist action and behave as antagonists |  |
| COc1ccc(OC)c(C[C@H](C)N)c1 [S (+)1a] | 6.32 ± 0.15 | 0.48 µM | 100% |  |  |  |  |  |  |  |  |  |  |  |  | about six times more potent |
